Experimental data published in US20240217977A1, “DIAZEPANONE-FUSED PYRIMIDINE COMPOUNDS, COMPOSITIONS AND MEDICINAL APPLICATIONS THEREOF” (Blueprint Medicines Corporation, priority 2021, published 2024).
pIC50: −log10 of the molar value.

How the values were obtained:
Assay type in all cases: cell-based
A431 cells = experiment: Cellular proliferation (Alamar Blue) assay, A431 cells; settings: Homo sapiens, A-431, 72 hr incubation
Protocol: (§1) Example 2: Cellular Proliferation (Alamar Blue) Assays
(§2) • 1. EGFR(D770_N771insSVD) expressing Ba/F3 stable cell line • 2. EGFR (A767_dupASV) expressing Ba/F3 stable cell line • 3. A431 cells • 4. EGFR (H773insNPH) expressing Ba/F3 stable cell line • 5. HER2 (A775_G775insYVMA) expressing Ba/F3 stable cell line
(§3) • 1. Seed cells at 5000 for A431 and 15,000 cells for Ba/F3 in 100 μL/well in complete media (for A431: DMEM with 10% FBS and for Ba/F3 cells: RPMI with 10% FBS) in • 96-well tissue culture plate. Leave outer wells without cells for background measurements. Incubate at 37 degree Celsius in 5% C02 humidified incubator for 16-18 hours. • 2. Add 0.025 ml of 5× concentration compound dilution or DMSO control. Final compound concentration range is 10-0.0005 μM prepared in 3-fold serial dilutions. Incubate for 72 hr at 37 degree Celsius in 5% CO2 humidified incubator. • 3. Add 0.0125 ml Alamar Blue™ reagent to each well with multi-channel pipette and tap gently on each side of the plate to mix. Incubate for 3 hours at 37 degree Celsius in 5% CO2 humidified incubator. • 4. Read plates on fluorescence reader (Tecan Spark Control, Device: Spark, Serial #: 1801006040) at 540 nm excitation, 590 nm emission wavelength. • 5. Data analysis was performed using XLfit 5.5.0.5.

[1] = target: EGFR (A767_dupASV) expressing Ba/F3 stable cell line (Homo sapiens, UniProt P00533, DUP767-769, cells depend on it); experiment: Cellular proliferation (Alamar Blue) assay, EGFR (A767_dupASV) Ba/F3; settings: 72 hr incubation, read-out: A767 IC50
Protocol: as §1, §2, §3

[2] = target: EGFR(D770_N771insSVD) expressing Ba/F3 stable cell line (Homo sapiens, UniProt P00533, DUP768-770, cells depend on it); experiment: Cellular proliferation (Alamar Blue) assay, EGFR(D770_N771insSVD) Ba/F3; settings: 72 hr incubation, read-out: D770 IC50
Protocol: as §1, §2, §3

[3] = target: EGFR (H773insNPH) expressing Ba/F3 stable cell line (Homo sapiens, UniProt P00533, DUP771-773, cells depend on it); experiment: Cellular proliferation (Alamar Blue) assay, EGFR (H773insNPH) Ba/F3; settings: 72 hr incubation, read-out: NPH IC50
Protocol: as §1, §2, §3

[4] = target: HER2 (A775_G775insYVMA) expressing Ba/F3 stable cell line (Homo sapiens, UniProt P04626, DUP772-775, cells depend on it); experiment: Cellular proliferation (Alamar Blue) assay, HER2 (A775_G775insYVMA) Ba/F3; settings: 72 hr incubation, read-out: YVMA IC50
Protocol: as §1, §2, §3

Sequence of HER2 (A775_G775insYVMA) expressing Ba/F3 stable cell line (P04626 with tags, fused parts or gaps DUP772-775): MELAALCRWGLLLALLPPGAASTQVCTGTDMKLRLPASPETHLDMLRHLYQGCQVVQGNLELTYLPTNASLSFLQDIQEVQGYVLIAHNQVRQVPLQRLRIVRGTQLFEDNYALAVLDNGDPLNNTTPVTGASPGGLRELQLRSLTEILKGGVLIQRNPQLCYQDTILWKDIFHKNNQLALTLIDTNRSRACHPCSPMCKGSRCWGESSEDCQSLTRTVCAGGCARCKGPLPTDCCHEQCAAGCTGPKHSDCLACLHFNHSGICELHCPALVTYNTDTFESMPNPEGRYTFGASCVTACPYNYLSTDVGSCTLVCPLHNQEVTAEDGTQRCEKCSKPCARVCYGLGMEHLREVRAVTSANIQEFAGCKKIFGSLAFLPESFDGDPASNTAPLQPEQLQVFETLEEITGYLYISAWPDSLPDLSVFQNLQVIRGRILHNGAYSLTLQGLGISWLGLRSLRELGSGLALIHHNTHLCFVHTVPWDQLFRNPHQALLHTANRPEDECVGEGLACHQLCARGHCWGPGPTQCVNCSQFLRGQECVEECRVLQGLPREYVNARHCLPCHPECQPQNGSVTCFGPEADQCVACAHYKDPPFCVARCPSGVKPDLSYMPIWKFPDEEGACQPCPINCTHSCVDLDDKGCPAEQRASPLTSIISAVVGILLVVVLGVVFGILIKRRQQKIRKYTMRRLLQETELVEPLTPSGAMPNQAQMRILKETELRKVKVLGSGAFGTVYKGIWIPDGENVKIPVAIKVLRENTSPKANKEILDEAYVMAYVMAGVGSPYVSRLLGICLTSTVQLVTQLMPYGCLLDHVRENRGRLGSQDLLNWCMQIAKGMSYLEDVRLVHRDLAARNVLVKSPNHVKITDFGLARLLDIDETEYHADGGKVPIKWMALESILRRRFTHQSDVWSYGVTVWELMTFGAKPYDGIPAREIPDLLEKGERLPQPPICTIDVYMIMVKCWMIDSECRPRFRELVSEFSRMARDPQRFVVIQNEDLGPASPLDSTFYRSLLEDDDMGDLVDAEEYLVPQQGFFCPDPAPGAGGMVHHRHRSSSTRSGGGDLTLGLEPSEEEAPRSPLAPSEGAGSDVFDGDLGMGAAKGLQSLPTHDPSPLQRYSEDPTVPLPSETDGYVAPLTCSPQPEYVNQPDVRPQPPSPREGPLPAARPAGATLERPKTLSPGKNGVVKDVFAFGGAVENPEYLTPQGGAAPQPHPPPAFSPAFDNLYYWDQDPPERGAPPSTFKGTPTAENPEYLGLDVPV
Sequence of EGFR (A767_dupASV) expressing Ba/F3 stable cell line (P00533 with tags, fused parts or gaps DUP767-769): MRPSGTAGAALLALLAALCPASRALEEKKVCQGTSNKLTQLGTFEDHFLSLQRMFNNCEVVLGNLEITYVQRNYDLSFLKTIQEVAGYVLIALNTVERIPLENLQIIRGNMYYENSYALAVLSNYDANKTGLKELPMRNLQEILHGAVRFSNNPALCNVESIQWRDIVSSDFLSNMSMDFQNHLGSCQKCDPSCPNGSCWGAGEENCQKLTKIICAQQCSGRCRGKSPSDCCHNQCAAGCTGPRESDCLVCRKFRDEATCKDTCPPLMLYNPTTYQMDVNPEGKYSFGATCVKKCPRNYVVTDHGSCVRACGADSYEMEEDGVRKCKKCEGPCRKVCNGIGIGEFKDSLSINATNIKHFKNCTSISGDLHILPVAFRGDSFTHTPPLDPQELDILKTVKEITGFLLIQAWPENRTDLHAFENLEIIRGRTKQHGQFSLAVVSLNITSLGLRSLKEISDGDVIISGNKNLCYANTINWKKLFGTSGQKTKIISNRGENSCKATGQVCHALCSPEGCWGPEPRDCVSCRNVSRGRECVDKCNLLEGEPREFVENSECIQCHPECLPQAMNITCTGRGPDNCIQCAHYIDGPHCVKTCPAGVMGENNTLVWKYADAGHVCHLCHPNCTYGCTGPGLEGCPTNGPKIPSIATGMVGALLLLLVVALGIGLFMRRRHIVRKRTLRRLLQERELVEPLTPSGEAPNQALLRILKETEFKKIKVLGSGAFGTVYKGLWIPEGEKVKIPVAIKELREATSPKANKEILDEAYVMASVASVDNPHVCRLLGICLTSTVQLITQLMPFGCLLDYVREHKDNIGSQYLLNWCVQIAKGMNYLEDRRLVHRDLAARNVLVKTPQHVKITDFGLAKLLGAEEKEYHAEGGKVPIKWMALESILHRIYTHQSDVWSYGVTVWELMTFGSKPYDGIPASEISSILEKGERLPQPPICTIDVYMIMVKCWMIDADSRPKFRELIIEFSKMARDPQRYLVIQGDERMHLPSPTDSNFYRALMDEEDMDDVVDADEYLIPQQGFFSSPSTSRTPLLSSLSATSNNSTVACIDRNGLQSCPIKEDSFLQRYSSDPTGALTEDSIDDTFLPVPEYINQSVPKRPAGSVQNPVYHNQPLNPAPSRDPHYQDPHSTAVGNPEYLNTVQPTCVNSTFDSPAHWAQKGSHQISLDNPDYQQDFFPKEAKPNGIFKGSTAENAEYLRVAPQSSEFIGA
Sequence of EGFR(D770_N771insSVD) expressing Ba/F3 stable cell line (P00533 with tags, fused parts or gaps DUP768-770): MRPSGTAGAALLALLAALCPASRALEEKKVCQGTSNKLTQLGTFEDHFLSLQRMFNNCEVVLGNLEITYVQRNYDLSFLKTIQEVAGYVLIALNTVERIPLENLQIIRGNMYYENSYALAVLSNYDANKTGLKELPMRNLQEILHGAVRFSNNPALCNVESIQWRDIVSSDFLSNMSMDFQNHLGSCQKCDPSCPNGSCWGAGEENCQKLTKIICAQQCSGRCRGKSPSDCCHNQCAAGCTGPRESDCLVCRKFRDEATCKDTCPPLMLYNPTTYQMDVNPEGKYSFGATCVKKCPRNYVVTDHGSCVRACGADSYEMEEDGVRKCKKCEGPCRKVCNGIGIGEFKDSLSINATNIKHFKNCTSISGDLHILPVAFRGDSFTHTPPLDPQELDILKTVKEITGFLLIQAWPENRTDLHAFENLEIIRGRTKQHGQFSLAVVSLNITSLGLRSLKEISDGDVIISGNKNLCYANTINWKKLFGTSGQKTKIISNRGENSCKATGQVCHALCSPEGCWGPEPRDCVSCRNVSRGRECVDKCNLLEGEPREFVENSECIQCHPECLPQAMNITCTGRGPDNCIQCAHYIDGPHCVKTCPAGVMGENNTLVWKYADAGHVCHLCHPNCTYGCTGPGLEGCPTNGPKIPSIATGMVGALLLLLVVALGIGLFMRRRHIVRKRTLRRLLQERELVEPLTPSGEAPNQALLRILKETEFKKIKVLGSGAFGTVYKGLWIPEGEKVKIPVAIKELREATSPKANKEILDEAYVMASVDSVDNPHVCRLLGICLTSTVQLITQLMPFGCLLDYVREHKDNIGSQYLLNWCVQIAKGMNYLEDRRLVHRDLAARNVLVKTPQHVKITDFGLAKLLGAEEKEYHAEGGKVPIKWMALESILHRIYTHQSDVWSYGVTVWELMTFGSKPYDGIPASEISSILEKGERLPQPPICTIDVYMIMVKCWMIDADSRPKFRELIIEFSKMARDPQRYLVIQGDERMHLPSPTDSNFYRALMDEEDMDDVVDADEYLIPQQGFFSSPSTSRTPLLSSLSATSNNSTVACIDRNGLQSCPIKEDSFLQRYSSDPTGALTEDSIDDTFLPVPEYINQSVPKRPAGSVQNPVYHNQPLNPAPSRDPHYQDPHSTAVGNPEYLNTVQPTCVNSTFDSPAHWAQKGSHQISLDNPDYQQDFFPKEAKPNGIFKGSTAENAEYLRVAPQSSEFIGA
Sequence of EGFR (H773insNPH) expressing Ba/F3 stable cell line (P00533 with tags, fused parts or gaps DUP771-773): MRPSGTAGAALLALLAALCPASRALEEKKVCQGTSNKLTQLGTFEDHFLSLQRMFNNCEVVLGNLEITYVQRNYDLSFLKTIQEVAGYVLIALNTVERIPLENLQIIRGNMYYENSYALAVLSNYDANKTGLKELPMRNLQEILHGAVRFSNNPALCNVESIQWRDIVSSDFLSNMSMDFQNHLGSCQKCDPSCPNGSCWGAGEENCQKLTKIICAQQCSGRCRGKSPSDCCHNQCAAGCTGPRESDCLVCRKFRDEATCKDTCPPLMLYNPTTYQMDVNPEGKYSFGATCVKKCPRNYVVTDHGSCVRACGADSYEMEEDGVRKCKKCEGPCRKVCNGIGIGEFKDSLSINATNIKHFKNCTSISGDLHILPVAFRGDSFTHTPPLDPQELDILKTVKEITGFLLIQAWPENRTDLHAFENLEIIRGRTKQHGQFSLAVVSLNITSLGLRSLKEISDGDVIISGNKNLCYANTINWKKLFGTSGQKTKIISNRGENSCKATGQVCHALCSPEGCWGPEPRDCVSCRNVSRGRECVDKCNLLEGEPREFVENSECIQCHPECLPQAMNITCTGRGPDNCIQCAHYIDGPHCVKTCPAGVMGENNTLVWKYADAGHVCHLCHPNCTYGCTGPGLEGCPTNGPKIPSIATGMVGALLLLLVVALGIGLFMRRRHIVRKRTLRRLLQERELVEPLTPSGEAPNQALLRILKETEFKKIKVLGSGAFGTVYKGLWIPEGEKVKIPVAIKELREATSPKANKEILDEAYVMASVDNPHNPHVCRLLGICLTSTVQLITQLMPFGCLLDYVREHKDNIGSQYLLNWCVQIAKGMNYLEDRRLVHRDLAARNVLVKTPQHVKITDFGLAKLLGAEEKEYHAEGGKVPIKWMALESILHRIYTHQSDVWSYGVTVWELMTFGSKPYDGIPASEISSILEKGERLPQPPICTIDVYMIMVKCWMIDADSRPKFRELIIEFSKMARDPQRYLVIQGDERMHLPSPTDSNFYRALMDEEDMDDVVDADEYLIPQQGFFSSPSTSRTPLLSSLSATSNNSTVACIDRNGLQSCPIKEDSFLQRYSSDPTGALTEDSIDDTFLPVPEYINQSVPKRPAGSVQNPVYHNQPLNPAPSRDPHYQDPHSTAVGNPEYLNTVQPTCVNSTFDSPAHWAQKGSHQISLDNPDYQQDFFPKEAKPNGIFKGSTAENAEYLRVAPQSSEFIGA

| SMILES | pIC50 (A431 cells) | GI50 [1] | GI50 [2] | GI50 [3] | GI50 [4] |
| --- | --- | --- | --- | --- | --- |
| COC/C=C/C(=O)Nc1cccc(N2C(=O)N(Cc3ccccc3)CCc3cnc(Nc4cn(C)nc4Cl)nc32)c1 [Compound 4, (E)-N-(3-(7-benzyl-2-((3-chloro-1-methyl-1H-pyrazol-4-yl)amino)-8-oxo-5,6,7,8-tetrahydro-9H-pyrimido[4,5-d][1,3]diazepin-9-yl)phenyl)-4-methoxybut-2-enamide] | < 5.00 | 104 nM | 98 nM | 103 nM | 125 nM |
| Cn1cc(Nc2ncc3c(n2)N(c2cccc(NC(=O)/C=C/CF)c2)C(=O)N(Cc2ccccc2)CC3)c(Cl)n1 [Compound 6, (E)-N-(3-(7-benzyl-2-((3-chloro-1-methyl-1H-pyrazol-4-yl)amino)-8-oxo-5,6,7,8-tetrahydro-9H-pyrimido[4,5-d][1,3]diazepin-9-yl)phenyl)-4-fluorobut-2-enamide] | 8.10 | 9 nM | 12 nM | 32 nM | 10 nM |
| Cn1cc(Nc2ncc3c(n2)N(c2cccc(NC(=O)/C=C/CN4CCCCC4)c2)C(=O)N(Cc2ccccc2)CC3)c(Cl)n1 [Compound 3, (E)-N-(3-(7-benzyl-2-((3-chloro-1-methyl-1H-pyrazol-4-yl)amino)-8-oxo-5,6,7,8-tetrahydro-9H-pyrimido[4,5-d][1,3]diazepin-9-yl)phenyl)-4-(piperidin-1-yl)but-2-enamide] | < 5.00 | 42 nM | 48 nM | 108 nM | 31 nM |
| C=CC(=O)Nc1cccc(N2C(=O)N(c3ccc(F)cc3)CCc3cnc(Nc4cn(C)nc4Cl)nc32)c1 [Compound 42, N-(3-(2-((3-chloro-1-methyl-1H-pyrazol-4-yl)amino)-7-(4-fluorophenyl)-8-oxo-5,6,7,8-tetrahydro-9H-pyrimido[4,5-d][1,3]diazepin-9-yl)phenyl)acrylamide] | 7.64 | 75 nM | 110 nM | 3 nM | 91 nM |
| C/C=C/C(=O)Nc1cccc(N2C(=O)N(c3ccccc3)CCc3cnc(Nc4cn(C)nc4Cl)nc32)c1 [Compound 30, (E)-N-(3-(2-((3-chloro-1-methyl-1H-pyrazol-4-yl)amino)-8-oxo-7-phenyl-5,6,7,8-tetrahydro-9H-pyrimido[4,5-d][1,3]diazepin-9-yl)phenyl)but-2-enamide] | < 5.00 | 993 nM | 1960 nM |  | 3320 nM |
| CN(C)C/C=C/C(=O)Nc1cccc(N2C(=O)N(Cc3ccccc3)CCc3cnc(Nc4ccc(N5CCN(C)CC5)nc4)nc32)c1 [Compound 17, (E)-N-(3-(7-benzyl-2-((6-(4-methylpiperazin-1-yl)pyridin-3-yl)amino)-8-oxo-5,6,7,8-tetrahydro-9H-pyrimido[4,5-d][1,3]diazepin-9-yl)phenyl)-4-(dimethylamino)but-2-enamide] | < 5.00 | 1130 nM | 2770 nM |  | 793 nM |
| Cn1cc(Nc2ncc3c(n2)N(c2cccc(NC(=O)/C=C/CN4CCOCC4)c2)C(=O)N(c2ccccc2)CC3)c(Cl)n1 [Compound 32, (E)-N-(3-(2-((3-chloro-1-methyl-1H-pyrazol-4-yl)amino)-8-oxo-7-phenyl-5,6,7,8-tetrahydro-9H-pyrimido[4,5-d][1,3]diazepin-9-yl)phenyl)-4-morpholinobut-2-enamide] | < 5.00 | 1160 nM | 1360 nM |  | 3280 nM |
| C=CC(=O)Nc1cccc(N2C(=O)N(C3CC3)CCc3cnc(Nc4cn(C)nc4Cl)nc32)c1 [Compound 20, N-(3-(2-((3-chloro-1-methyl-1H-pyrazol-4-yl)amino)-7-cyclopropyl-8-oxo-5,6,7,8-tetrahydro-9H-pyrimido[4,5-d][1,3]diazepin-9-yl)phenyl)acrylamide] | < 5.00 | 225 nM | 320 nM |  | 895 nM |

Now from value to molecule:

| pIC50 (A431 cells) | GI50 [1] | GI50 [2] | GI50 [3] | GI50 [4] | SMILES |
| --- | --- | --- | --- | --- | --- |
| 8.70 | 27 nM | 36 nM | 41 nM | 24 nM | C=CC(=O)Nc1cccc(N2C(=O)N(Cc3ccccc3)CCc3cnc(Nc4cn(C5CCN(C)CC5)nc4Cl)nc32)c1 [Compound 7, N-(3-(7-benzyl-2-((3-chloro-1-(1-methylpiperidin-4-yl)-1H-pyrazol-4-yl)amino)-8-oxo-5,6,7,8-tetrahydro-9H-pyrimido[4,5-d][1,3]diazepin-9-yl)phenyl)acrylamide] |
| 8.05 | 25 nM | 39 nM | 32 nM | 25 nM | C=CC(=O)Nc1cccc(N2C(=O)N(Cc3ccccc3)CCc3cnc(Nc4ccc(N5CCN(C)CC5)nc4)nc32)c1 [Compound 16, N-(3-(7-benzyl-2-((6-(4-methylpiperazin-1-yl)pyridin-3-yl)amino)-8-oxo-5,6,7,8-tetrahydro-9H-pyrimido[4,5-d][1,3]diazepin-9-yl)phenyl)acrylamide] |
| 8.05 | 13 nM | 12 nM | 32 nM | 8 nM | C=CC(=O)Nc1cccc(N2C(=O)N(Cc3ccccc3)CCc3cnc(Nc4cn(C5COC5)nc4Cl)nc32)c1 [Compound 28, N-(3-(7-benzyl-2-((3-chloro-1-(oxetan-3-yl)-1H-pyrazol-4-yl)amino)-8-oxo-5,6,7,8-tetrahydro-9H-pyrimido[4,5-d][1,3]diazepin-9-yl)phenyl)acrylamide] |
| 7.47 | 33 nM | 38 nM | 32 nM | 15 nM | C=CC(=O)Nc1cccc(N2C(=O)N(Cc3ccccc3)CCc3cnc(Nc4ccc(N5CCN(C)CC5)cc4OC)nc32)c1 [Compound 14, N-(3-(7-benzyl-2-((2-methoxy-4-(4-methylpiperazin-1-yl)phenyl)amino)-8-oxo-5,6,7,8-tetrahydro-9H-pyrimido[4,5-d][1,3]diazepin-9-yl)phenyl)acrylamide] |
| 7.19 | 55 nM | 45 nM | 152 nM | 31 nM | C=CC(=O)Nc1cccc(N2C(=O)N(Cc3ccccc3)CCc3cnc(Nc4ccc(F)cc4)nc32)c1 [Compound 18, N-(3-(7-benzyl-2-((4-fluorophenyl)amino)-8-oxo-5,6,7,8-tetrahydro-9H-pyrimido[4,5-d][1,3]diazepin-9-yl)phenyl)acrylamide] |
| 8.70 | 12 nM | 10 nM | 7 nM | 12 nM | C=CC(=O)Nc1cccc(N2C(=O)N(Cc3ccccc3)CCc3cnc(Nc4cn(C)nc4Cl)nc32)c1 [Compound 5, N-(3-(7-benzyl-2-((3-chloro-1-methyl-1H-pyrazol-4-yl)amino)-8-oxo-5,6,7,8-tetrahydro-9H-pyrimido[4,5-d][1,3]diazepin-9-yl)phenyl)acrylamide] |
| < 5.00 | 848 nM | 1060 nM |  | 1030 nM | C=CC(=O)Nc1cccc(N2C(=O)N(Cc3ccccc3)CCc3cnc(NC4CCCC4)nc32)c1 [Compound 13, N-(3-(7-benzyl-2-(cyclopentylamino)-8-oxo-5,6,7,8-tetrahydro-9H-pyrimido[4,5-d][1,3]diazepin-9-yl)phenyl)acrylamide] |
